In PMC12649549, “Sequence Permutation Generated Lysine and Tryptophan-Rich Antimicrobial Peptides with Enhanced Therapeutic Index” (Antibiotics, 2025):
Read-outs that look alike come from different tables or passages of the source.

Key:
[1] = tested on: Gram-positive bacteria; test: Geometric mean MIC and therapeutic index, Gram-positive bacteria; format: cell-based; settings: Gram-positive bacteria
Description: (§1) In this study, we aimed to investigate the potential of W5K series peptides for therapeutic use. To evaluate their efficacy for antibacterial therapy, we used the Therapeutic Index (TI) as a measure of their cell selectivity. The TI was calculated as the ratio of the concentration causing 10% hemolysis of human red blood cells (HC10) to the geometric mean minimum inhibitory concentration (GM) of the peptides against both Gram-negative and Gram-positive bacteria. This parameter was used to quantitatively assess the balance between antibacterial potency and cytotoxicity among the W5K derivatives.
(§2) The antibacterial activities of the peptides in Müller-Hinton (MH) broth and modified LYM broth were determined using the standard broth microdilution method as per Clinical and Laboratory Standards Institute (CLSI) guidelines. The LYM broth was prepared with specific components and adjusted to different conditions, including varying concentrations of NaCl and MgCl2, and different pH levels. To prepare the LYM broth, 5.4 mM KCl, 5.6 mM Na2HPO4, 0.5 mM MgSO4, and 1.0 mM sodium citrate were added. Additionally, 0.4 mg of ZnCl2, 2.0 mg of FeCl3·6H2O, 0.1 mg of CuSO4·5H2O, 0.1 mg of MnSO4·H2O, 0.1 mg of Na2B4O7∙10H2O, 700 mg of amino acid mixtures without tryptophan (Takara Bio Inc., San Jose, CA, USA), and 20 mg of L-tryptophan were added per liter of medium. The pH was adjusted to 7.4, and a vitamin mixture (100X, Sigma) and glucose concentration of 2% were added. For different conditions of LYM broth, NaCl concentrations of 300, 200, 150, and 50 mM, MgCl2 concentrations of 2.5, 1.5, and 0.5 mM, and pH levels of 6.5, 5.5, and 4.5 were adjusted. Bacterial strains were incubated in MH broth overnight, regrown, and diluted to a final concentration of 5 × 10^5 CFU/mL. Peptides were added to each well at final concentrations of 50, 25, 12.5, 6.25, 3.13, 1.56, and 0.78 µg/mL, and 99 µL of diluted microbes was loaded into each well of a polypropylene 96-well plate. […] The Morpheus HeatMap software (https://software.broadinstitute.org/morpheus/) was used to display MIC values on a color scale. All experiments were independently repeated three times.

[2] = tested on: S. aureus ATCC 25923
Outline: (§3)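 Salt and pH tolerance was assessed by determining MICs in LYM medium containing 50–300 mM NaCl, 0.5–2.5 mM MgCl2, or at pH 4.5–6.5, alongside MH broth. The inoculum was 5 × 10^5 CFU/mL.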

[3] = tested on: A. baumannii 14B0097 (Acinetobacter sp., BCRC number 14B0097)
Outline: as §3

[4] = tested on: Escherichia coli (ATCC 25922)
Outline: as §3

[5] = tested on: S. aureus ATCC 33591
Outline: as §3

[6] = tested on: A. baumannii 14B0091 (Acinetobacter sp., BCRC number 14B0091)
Outline: as §3

[7] = tested on: S. aureus ATCC 33593
Outline: as §3

[8] = tested on: Both Gram-positive and -negative bacteria; test: Geometric mean MIC, therapeutic index and fold changes of MIC, whole panel of strains; format: cell-based
Description: as §1, §2

[9] = LYM broth, 0 mM NaCl, 16 h, 37 °C
[10] = LYM broth, 50 mM NaCl, 16 h, 37 °C
[11] = LYM broth, 100 mM NaCl, 16 h, 37 °C
[12] = LYM broth, 200 mM (NaCl), 16 h, 37 °C
[13] = LYM broth, 300 mM (NaCl), 16 h, 37 °C
[14] = MH broth, 5 × 10^5 CFU/mL, 16 h, 37 °C, repeated three times

## Ac-RKWLKWLAKKKKW-NH2 [Peptide W5K03]
[1]; MH broth, MIC >50 µg/mL counted as 100 µg/mL
  GM G+ (geometric mean of the MIC values): 66.0 µg/mL
[1]; HC10/GM
  Therapeutic Index (TI) G+: 1.6
[2]; [9]
  MIC: 6.25 µg/mL
[2]; LYM broth, 0.5 mM MgCl2
  MIC: 6.25 µg/mL
[2]; LYM broth, 1.5 mM MgCl2
  MIC: 12.5 µg/mL
[2]; LYM broth, 2.5 mM MgCl2
  MIC: 12.5 µg/mL
[2]; [10]
  MIC: 12.5 µg/mL
[2]; [11]
  MIC: 25 µg/mL
[2]; [12]
  MIC: >50 µg/mL
[2]; [13]
  MIC: >50 µg/mL
[2]; LYM broth, pH 4.5
  MIC: 6.25 µg/mL
[2]; LYM broth, pH 5.5
  MIC: 3.13 µg/mL
[2]; LYM broth, pH 6.5
  MIC: 3.13 µg/mL
[2]; [14]
  MIC: 50 µg/mL
[3]; [9]
  MIC: 1.56 µg/mL
[3]; LYM broth, 0.5 mM MgCl2
  MIC: 3.13 µg/mL
[3]; LYM broth, 1.5 mM MgCl2
  MIC: 3.13 µg/mL
[3]; LYM broth, 2.5 mM MgCl2
  MIC: 3.13 µg/mL
[3]; [10]
  MIC: 3.13 µg/mL
[3]; [11]
  MIC: 3.13 µg/mL
[3]; [12]
  MIC: 6.25 µg/mL
[3]; [13]
  MIC: 25 µg/mL
[3]; LYM broth, pH 4.5
  MIC: 3.13 µg/mL
[3]; LYM broth, pH 5.5
  MIC: 3.13 µg/mL
[3]; LYM broth, pH 6.5
  MIC: 3.13 µg/mL
[3]; [14]
  MIC: 6.25 µg/mL
[4]; [9]
  MIC: 6.25 µg/mL
[4]; LYM broth, 0.5 mM MgCl2
  MIC: 12.5 µg/mL
[4]; LYM broth, 1.5 mM MgCl2
  MIC: 25 µg/mL
[4]; LYM broth, 2.5 mM MgCl2
  MIC: 25 µg/mL
[4]; [10]
  MIC: 25 µg/mL
[4]; [11]
  MIC: 50 µg/mL
[4]; [12]
  MIC: >50 µg/mL
[4]; [13]
  MIC: >50 µg/mL
[4]; LYM broth, pH 4.5
  MIC: 6.25 µg/mL
[4]; LYM broth, pH 5.5
  MIC: 6.25 µg/mL
[4]; LYM broth, pH 6.5
  MIC: 3.13 µg/mL
[4]; [14]
  MIC: 50 µg/mL
[5]; [9]
  MIC: 25 µg/mL
[5]; LYM broth, 0.5 mM MgCl2
  MIC: 25 µg/mL
[5]; LYM broth, 1.5 mM MgCl2
  MIC: 25 µg/mL
[5]; LYM broth, 2.5 mM MgCl2
  MIC: 50 µg/mL
[5]; [10]
  MIC: 50 µg/mL
[5]; [11]
  MIC: 50 µg/mL
[5]; [12]
  MIC: >50 µg/mL
[5]; [13]
  MIC: >50 µg/mL
[5]; LYM broth, pH 4.5
  MIC: 25 µg/mL
[5]; LYM broth, pH 5.5
  MIC: 25 µg/mL
[5]; LYM broth, pH 6.5
  MIC: 12.5 µg/mL
[5]; [14]
  MIC: >50 µg/mL
[6]; [9]
  MIC: 1.56 µg/mL
[6]; LYM broth, 0.5 mM MgCl2
  MIC: 1.56 µg/mL
[6]; LYM broth, 1.5 mM MgCl2
  MIC: 3.13 µg/mL
[6]; LYM broth, 2.5 mM MgCl2
  MIC: 3.13 µg/mL
[6]; [10]
  MIC: 3.13 µg/mL
[6]; [11]
  MIC: 3.13 µg/mL
[6]; [12]
  MIC: 6.25 µg/mL
[6]; [13]
  MIC: 25 µg/mL
[6]; LYM broth, pH 4.5
  MIC: 3.13 µg/mL
[6]; LYM broth, pH 5.5
  MIC: 3.13 µg/mL
[6]; LYM broth, pH 6.5
  MIC: 1.56 µg/mL
[6]; [14]
  MIC: 6.25 µg/mL
[7]; [9]
  MIC: 25 µg/mL
[7]; LYM broth, 0.5 mM MgCl2
  MIC: 25 µg/mL
[7]; LYM broth, 1.5 mM MgCl2
  MIC: 25 µg/mL
[7]; LYM broth, 2.5 mM MgCl2
  MIC: 50 µg/mL
[7]; [10]
  MIC: 25 µg/mL
[7]; [11]
  MIC: 50 µg/mL
[7]; [12]
  MIC: >50 µg/mL
[7]; [13]
  MIC: >50 µg/mL
[7]; LYM broth, pH 4.5
  MIC: 25 µg/mL
[7]; LYM broth, pH 5.5
  MIC: 25 µg/mL
[7]; LYM broth, pH 6.5
  MIC: 12.5 µg/mL
[7]; [14]
  MIC: >50 µg/mL
[8]; Both Gram-positive and -negative bacteria, MH broth, MIC >50 µg/mL counted as 100 µg/mL
  GM G−/+ (geometric mean of the MIC values): 33.0 µg/mL
[8]; HC10/GM, both Gram-positive and -negative bacteria
  Therapeutic Index (TI) G−/+: 3.3
